According to patent US20110076258A1, “METHODS OF MODULATING T CELL- DEPENDENT IMMUNE RESPONSES” (Converge Biotech Inc., priority 2008, published 2011):

Columns and labels:
MAPK = assay: Protracted MAPK (p38, Erk) activation after 16 h CD3 stimulation; assay type: cell-based, mouse; conditions: crt^−/− T cells, CD3 antibodies 16 h
[1] = test system: INS-HA transgenic RAG-2^−/− mice; assay: Diabetes by adoptive transfer of TCR-HA CD4 cells; assay type: in vivo, mouse
[2] = test system: T cells stimulated by anti-CD3 under Th17 skewing conditions; assay: Th17 skewing conditions (TGFβ and IL-6), Foxp3 and RORγT expression; assay type: cell-based
Experimental: Treatment with oATP at 100 μM inhibits Th17 differentiation and promotes Foxp3 expression. […] The absolute number of CD4^+CD25^high cells expressing Foxp3 by FACS analysis was increased (FIG. 12B). Moreover, the de-differentiation of sorted CD4^+CD25^high natural Treg cells to the Th17 lineage following stimulation (Koenen et al., Blood 112(6):2340-2352 (2008)) was prevented by oATP at 100 μM (FIG. 12C).

NZB/NZW F1 mice = assay: Systemic lupus erythematosus / glomerulonephritis model; assay type: in vivo, mouse
Experimental: Graph representing protein concentration in urine from NZB/NZW Fi mice treated either with PBS (control) or oATP. 25-week -old female mice received either PBS or oATP intravenously (3 mM in 100 μl, five days treatment, 2 days break) for 6 weeks (see Example 14). Ten animals received PBS and ten animals received oATP.
Twenty-five week-old NZB/NZW F1 female mice were injected intravenously with either PBS or oATP (3 mM in 100 μl, five days treatment, 2 days break) for six weeks and examined for proteinuria (upper panel) and other indicated parameters (lower panels) (see Example 14). **: P<0.01; ***: P<0.001.
Effector/memory (CD44^+CD62L^−) CD4^+ cells recovered from the spleen of 25 week-old NZB/NZW F1 female mice treated either with PBS or oATP (upper panel); IFN-γ and IL-4 secretion by CD4^+ effector/memory T cells stimulated with plate bound anti-CD3 and anti-CD28 antibodies for 48 h detected by ELISA (lower panels) (see Example 14). **: P<0.01; ***: P<0.001.
Systemic lupus erythematosus (SLE), or its mouse model NZB/NZW F1 (Andrews et al., J. Exp. Med. 148:1198-1215 (1978)), is a chronic inflammatory disease characterized by polyclonal B cell activation with subsequent hypergammaglobulinemia and organ injury caused by immune complex deposits. Because CD4^+ T cells play a crucial role in the onset and propagation of the disease, we analyzed whether oATP treatment might ameliorate disease symptoms. Female NZB/NZW F1 mice at 25 weeks old (when most animals display proteinuria) received either PBS or oATP intravenously (3 mM in 100 μl, five days treatment, 2 days break) for 6 weeks. The proteinuria values were measured before the first treatment and at regular intervals after three weeks of oATP administration. […] Restimulation of sorted effector/memory T cells led to lower levels of IL-4 and IFNγ secretion in cells derived from oATP treated animals (18. 16, lower panels).

DBA/1 mice = assay: Collagen-induced arthritis model of rheumatoid arthritis; assay type: in vivo, mouse
crt^−/− FLC = assay: Graft-versus-host disease-like phenotype of crt^−/− fetal liver chimeras; assay type: in vivo, mouse
Experimental: Phenotype of crt^−/− FLC before treatment and after daily intravenous treatment with PBS or 6 mM oATP (100 μl) for 2 weeks (see Example 16).
Histopathological evaluation of skin biopsies executed in a blinded fashion. The graphs show selected examples of dramatic results seen with oATP treatment (see Example 16).
Recombinase-deficient Balb/c mice were reconstituted with hematopoietic progenitors from fetal liver of calreticulin (crt)^−/− and +/+E13 embryos (FIG. 21). The phenotype of the resulting crt^−/− fetal liver chimera (FLC), which mimics graft-versus-host disease (GVHD) (see, e.g., Porcellini et al., J Exp Med 203:461-471 (2006)), was assessed at weeks 8, 10 and 12 after transfer and compared to the phenotype of the crt^+/+ FLC at week 12.
crt^+/+ and crt^−/− FLCs received daily intravenous treatment with PBS or 6 mM oATP (100 μL) for two weeks.

[3] = Th17 skewing conditions, oATP 100 μM

Nc1ncnc2c1ncn2[C@@H](C=O)O[C@@H](C=O)COP(=O)(O)OP(=O)(O)OP(=O)(O)O [oATP]
prolonged activation of MAPK (p38 MAPK and Erk) (MAPK): almost completely abolished
Blood glucose ([1]; day 12, twice daily i.v. and i.p. day 1 to 10): normal
CD69^+ cells in the pancreas ([1]; mouse, in vivo): undetectable
TCR-HA^+ cells in the pancreas ([1]; mouse, in vivo): barely detectable
TCR-HA^+ cells in the spleen ([1]; mouse, in vivo): significantly reduced
pathological findings in the pancreas ([1]; mouse, in vivo): no relevant pathological findings
IL-6, IFN-γ and TNF-α on a per-cell basis, ex vivo splenocytes pulsed with HA 110-120 peptide ([1]; versus PBS-treated control group): significant reduction
absolute number of CD4^+CD25^high cells expressing Foxp3 (FACS) ([2]; Th17 skewing conditions): increased
expression of Foxp3 (quantitative RT-PCR) [2, 3]: gradually increased
expression of RORγT (quantitative RT-PCR) [2, 3]: suppressing
Th17 differentiation ([2]; oATP 100 μM): inhibits
de-differentiation of sorted CD4^+CD25^high natural Treg cells to the Th17 lineage ([2]; oATP 100 μM): prevented
proteinuria levels (NZB/NZW F1 mice; 3 mM in 100 μl i.v., five days treatment, 2 days break, 6 weeks): remained similar to pre-treatment levels
IL-4 and IFNγ secretion of restimulated sorted effector/memory T cells (NZB/NZW F1 mice; anti-CD3 and anti-CD28, 48 h, ELISA): lower levels
Histopathological scoring of kidneys: glomerular proliferation, lymphomonocytic infiltration and immune complex deposition (NZB/NZW F1 mice; mouse, in vivo): significant reduction
number of effector/memory T cells in spleen and lymph nodes (NZB/NZW F1 mice; mouse, in vivo): significantly reduced
clinical score variation versus control group (DBA/1 mice; 3 mM in 100 μl i.v., after the initial five days of treatment): consistently lower
collagen-specific antibodies (type II collagen ELISA) (DBA/1 mice; versus control mice): decreased
histopathological evaluation of skin biopsies (inflammation and epidermal hyperplasia) (crt^−/− FLC; blinded): histological improvement
blepharitis (crt^−/− FLC; daily i.v. 6 mM oATP (100 μL) for two weeks): dramatically ameliorated
